In US9150555B2, “Amide derivative and use thereof” (Mitsubishi Tanabe Pharma Corporation, priority 2010, dated 2015) one finds IC50 and inhibition data, which are given here for 26 compounds.

Counter-ions that a name gives are not always drawn.

Data set [1] has as its system IL-17 production of mouse spleen cells stimulated by rm-IL-23. The experiment in a line: Production of IL-17 induced when mouse spleen cells were stimulated by recombinant mouse interleukin-23 (rm-IL-23). Particulars: Mus musculus, 72 h, inhibition of IL-17 production, DBA/1J mouse spleen cells, rm-IL-23 1 nmol/L, ELISA. The class given is cell-based. The method, then:
Effect on Production of IL-17 Induced when Mouse Spleen Cells were Stimulated by Recombinant Mouse Interleukin-23 (rm-IL-23)
An RPMI1640 (Sigma-Aldrich) was used as a medium, to which penicillin G potassium (50 units/mL; Gibco), streptomycin (50 μg/mL; Gibco) and 2-mercaptoethanol (50 μmol/l; Sigma-Aldrich) were added, and then 10% of fetal calf serum (FCS; Cell Culture Technology) inactivated at 56° C. for 30 minutes was added and used in the Test. The test compound was dissolved in dimethylsulfoxide and diluted with 10% FCS-containing RPMI1640 medium to a desired concentration and used in the test. The spleens were aseptically taken out from 6-7 week-old male DBA/1J mice (Charles River Japan, Inc.) and a single cell suspension of spleen cells was prepared and hemolyzed by hypotonic treatment with a mixture of 0.83% aqueous solution of ammonium chloride and Tris-HCl buffer of pH 7.65 (9:1). A cell suspension prepared by 10% FCS-containing RPMI1640 medium was added to flat-bottomed 96 well microtestplate at 2×10^5 cells/well. Test compounds and rm-IL-23 (R&D systems) were diluted with a medium to 1 to 1,000 nmol/L, and 1 nmol/L of the final concentration respectively, which were added and cultured at 37° C., 5% carbon dioxide and 95% air for 72 hours. After completion of the culture, culture supernatant was sampled and an amount of IL-17 production was determined by ELISA method. After sampling the supernatant, WST-8 (Seikagaku Corporation) was added at 10 μl/well and cultured at 37° C., 5% carbon dioxide and 95% air for 4 hours. Then, absorbance (O.D.: Optical Density) at 450 nm was measured by a microplate reader and the value was adopted as an index of cell survivability. An inhibition rate (%) was calculated according to the following formula on the basis of an average of an amount of IL-17 production and a O.D. values of the well containing a test compound of each concentration.
Based on the dose-response curve obtained by plotting the inhibition rate in the longitudinal axis and concentration in the horizontal axis, the concentration of the compound which inhibits the level to 50% of the value of the control group (IC50; nmol/L) was determined by linear regression analysis. The results was shown in the next Table 1
On the technique in general: An ELISA detects its analyte on a solid surface through an enzyme-linked reagent.

In the next data set the target is hERG (Homo sapiens, UniProt Q12809). Briefly: Effects on hERG current (whole-cell clamping). Particulars: human, HEK 293 cells that express hERG, pH 7.4, hERG inhibition rate (%) (1 μM), 1 μM; tail peak current; hERG-expressed HEK 293 cells.
Sequence of hERG (Q12809 whole entry): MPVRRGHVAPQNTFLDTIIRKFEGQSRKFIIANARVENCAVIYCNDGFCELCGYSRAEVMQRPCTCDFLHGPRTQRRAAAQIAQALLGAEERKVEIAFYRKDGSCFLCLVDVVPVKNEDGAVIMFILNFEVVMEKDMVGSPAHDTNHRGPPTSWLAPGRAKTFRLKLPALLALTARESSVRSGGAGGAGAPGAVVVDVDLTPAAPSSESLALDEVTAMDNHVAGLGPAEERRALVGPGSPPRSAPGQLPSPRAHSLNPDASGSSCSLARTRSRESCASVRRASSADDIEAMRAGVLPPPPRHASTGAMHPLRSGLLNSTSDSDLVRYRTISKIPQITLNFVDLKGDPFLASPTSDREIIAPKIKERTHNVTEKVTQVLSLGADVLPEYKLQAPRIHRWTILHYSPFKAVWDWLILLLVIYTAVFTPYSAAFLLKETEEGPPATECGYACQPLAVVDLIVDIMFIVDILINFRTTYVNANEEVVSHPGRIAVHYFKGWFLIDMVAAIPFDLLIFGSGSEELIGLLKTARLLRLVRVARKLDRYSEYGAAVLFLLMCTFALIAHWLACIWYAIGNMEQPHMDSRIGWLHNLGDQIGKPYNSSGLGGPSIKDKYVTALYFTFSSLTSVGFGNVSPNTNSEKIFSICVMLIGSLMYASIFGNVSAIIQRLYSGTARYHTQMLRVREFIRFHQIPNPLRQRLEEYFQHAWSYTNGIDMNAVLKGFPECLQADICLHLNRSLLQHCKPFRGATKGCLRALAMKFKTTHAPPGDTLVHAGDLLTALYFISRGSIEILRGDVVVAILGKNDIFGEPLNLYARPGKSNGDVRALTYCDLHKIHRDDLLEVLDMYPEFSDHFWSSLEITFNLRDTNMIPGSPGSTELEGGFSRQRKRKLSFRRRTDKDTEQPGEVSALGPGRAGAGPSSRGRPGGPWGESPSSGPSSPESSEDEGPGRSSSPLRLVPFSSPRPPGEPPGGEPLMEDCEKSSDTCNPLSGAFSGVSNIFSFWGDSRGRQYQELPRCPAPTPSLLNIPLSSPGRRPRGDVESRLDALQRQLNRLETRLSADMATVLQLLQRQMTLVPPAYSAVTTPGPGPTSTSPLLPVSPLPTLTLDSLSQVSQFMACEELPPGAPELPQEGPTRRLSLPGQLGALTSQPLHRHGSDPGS

Broadly, the IC50 is the concentration needed to halve the response being measured. By inhibition is commonly meant how much of the control response was suppressed. Read a low inhibition as a weak effect. `Cc1c(C(=O)Nc2ccc([C@]3(C#N)CC[C@@H](N4CCOCC4)CC3)nc2)cnn1-c1ccc(C(F)(F)F)cn1` [Example D1, N-{6-[r-1-Cyano-c-4-(morpholin-4-yl)cyclohexyl]pyridin-3-yl}-5-methyl-1-[5-(trifluoromethyl)pyridin-2-yl]-1H-pyrazole-4-carboxamide hydrochloride]: the 50% inhibitory concentration (IC50) in data set [1] amounted to 78.9 nM. In addition, on hERG, the inhibition at 1 µM amounted to 22.6%.

On to `Cc1c(C(=O)Nc2ccc(C3=CCC(N4CCOCC4)CC3)nc2)cnn1-c1ccc(C2CC2)cn1` (stereo not drawn) [Example D5, 1-(5-Cyclopropylpyridin-2-yl)-5-methyl-N-{6-[4-(morpholin-4-yl)cyclohex-1-en-1-yl]pyridin-3-yl}-1H-pyrazole-4-carboxamide mesylate], for which the IC50 in data set [1] is 119 nM. This compound had an inhibition at 1 µM against hERG of 15.1%.

In the case of `Cc1c(C(=O)Nc2ccc([C@H]3CC[C@H](N4CCOCC4)CC3)nc2)cnn1-c1ccc(C(F)(F)F)cn1` [Example D6, trans-5-Methyl-N-{6-[4-(morpholin-4-yl)cyclohexyl]pyridin-3-yl}-1-[5-(trifluoromethyl)-pyridin-2-yl]-1H-pyrazole-4-carboxamide mesylate], the IC50 in data set [1] stood at 63.3 nM. For the same compound, at hERG, testing at 1 µM gave an inhibition of 24.5%.

For `Cc1c(C(=O)Nc2ccc([C@]3(C#N)CC[C@@H](N4CCOCC4)CC3)nc2)cnn1-c1ncc(Cl)cc1Cl` [Example D7, N-{6-[r-1-Cyano-c-4-(morpholin-4-yl)cyclohexyl]pyridin-3-yl}-1-(3,5-dichloropyridin-2-yl)-5-methyl-1H-pyrazole-4-carboxamide hydrochloric acid salt], in data set [1], the concentration for half-maximal inhibition (IC50) is 208 nM. On hERG, this compound displayed an inhibition at 1 µM of 24.7%.

For `Cc1c(C(=O)Nc2ccc([C@]3(C#N)CC[C@@H](N4CCC(O)C4)CC3)nc2)cnn1-c1ccc(C(F)(F)F)cn1` (stereo partly drawn) [Example D13, N-{6-[r-1-Cyano-c-4-(3-hydroxypyrrolidin-1-yl)cyclohexyl]pyridin-3-yl}-5-methyl-1-[5-(trifluoromethyl)pyridin-2-yl]-1H-pyrazole-4-carboxamide], the IC50 in data set [1] turned out to be 154 nM. For the same compound, the inhibition at 1 µM at hERG turned out to be 22%.

For the compound `Cc1c(C(=O)Nc2ccc([C@]3(C#N)CC[C@@H](N4CCOCC4)CC3)nc2)cnn1-c1ncc(C(F)(F)F)cc1F` [Example D14, N-{6-[r-1-Cyano-c-4-(morpholin-4-yl)cyclohexyl]pyridin-3-yl}-1-[3-fluoro-5-(trifluoromethyl)pyridin-2-yl]-5-methyl-1H-pyrazole-4-carboxamide], the IC50 in data set [1] came to 162 nM. 1 µM produced 6.4% inhibition against hERG.

For the compound `CO[C@H]1CC[C@](C#N)(c2ccc(NC(=O)c3cnn(-c4ccc(C)cc4)c3C)cn2)CC1` [Example D18, N-{6-[r-1-Cyano-c-4-methoxycyclohexyl]pyridin-3-yl}-5-methyl-1-(4-methylphenyl)-1H-pyrazole-4-carboxamide], the IC50 in data set [1] came to 251 nM. This compound displayed an inhibition at 1 µM at hERG of 7.2%.

With `Cc1cc(NC(=O)c2cnn(-c3ncc(Cl)cc3F)c2C)cnc1C1=CCC(N2CCOCC2)CC1` (stereo not drawn) [Example D19, 1-[5-Chloro-3-fluoropyridin-2-yl]-5-methyl-N-{5-methyl-6-[4-(morpholin-4-yl)cyclohex-1-en-1-yl]pyridin-3-yl}-1H-pyrazole-4-carboxamide], the IC50 in data set [1] is 92 nM. The inhibition at 1 µM at hERG is 35.1%.

With `Cc1cc(NC(=O)c2cnn(-c3ccc(C(F)(F)F)cn3)c2C)cnc1C1=CC[C@H](N2CCOCC2)CC1` [Example D21, (R)-5-Methyl-N-{5-methyl-6-[4-(morpholin-4-yl)cyclohex-1-en-1-yl]pyridin-3-yl}-1-[5-(trifluoromethyl)pyridin-2-yl]-1H-pyrazole-4-carboxamide], the concentration for half-maximal inhibition (IC50) in data set [1] was found to be 39.5 nM. Moreover, the inhibition at 1 µM against hERG worked out at 14.3%.

As for `Cc1cc(NC(=O)c2cnn(-c3ccc(C(F)(F)F)cn3)c2C)cnc1C1=CC[C@@H](N2CCOCC2)CC1` [Example D22, (S)-5-Methyl-N-{5-methyl-6-[4-(morpholin-4-yl)cyclohex-1-en-1-yl]pyridin-3-yl}-1-[5-(trifluoromethyl)pyridin-2-yl]-1H-pyrazole-4-carboxamide], the IC50 in data set [1] came out at 36.2 nM. For the same compound, the inhibition at 1 µM at hERG stood at 31%.

Regarding `Cc1cc(NC(=O)c2cnn(-c3ccc(C(F)(F)F)cn3)c2C)cnc1C1=CCC(O)CC1` (stereo not drawn) [Example D23, N-[6-(4-Hydroxycyclohex-1-en-1-yl)-5-methylpyridin-3-yl]-5-methyl-1-[5-(trifluoromethyl)-pyridin-2-yl]-1H-pyrazole-4-carboxamide], the IC50 in data set [1] was determined as 105 nM. This compound registered an inhibition at 1 µM against hERG of 20.2%.

As for `Cc1cc(NC(=O)c2cnn(-c3ncc(C(F)(F)F)cc3F)c2C)cnc1C1=CCC(N2CCOCC2)CC1` (stereo not drawn) [Example D24, 1-[3-Fluoro-5-(trifluoromethyl)pyridin-2-yl]-5-methyl-N-{5-methyl-6-[4-(morpholin-4-yl)cyclohex-1-en-1-yl]pyridin-3-yl}-1H-pyrazole-4-carboxamide mesylate], the IC50 in data set [1] stood at 40.3 nM. Further, testing at 1 µM at hERG gave an inhibition of 20.9%.

For the compound `Cc1cc(NC(=O)c2cnn(-c3ncc(C(F)(F)F)cc3F)c2C)cnc1C1=CCC(O)CC1` (stereo not drawn) [Example D25, 1-[3-Fluoro-5-(trifluoromethyl)pyridin-2-yl]-5-methyl-N-[5-methyl-6-(4-hydroxycyclohex-1-en-1-yl)pyridin-3-yl]-1H-pyrazole-4-carboxamide], the concentration for half-maximal inhibition (IC50) in data set [1] was determined as 148 nM. For the same compound, the inhibition at 1 µM on hERG was found to be 4.2%.

With `Cc1c(C(=O)Nc2ccc([C@]3(C#N)CC[C@@H](N4CCOCC4)CC3)nc2)cnn1-c1ccc(C(C)C)cn1` [Example D26, N-{6-[r-1-Cyano-c-4-(morpholin-4-yl)cyclohexyl]pyridin-3-yl}-1-(5-isopropylpyridin-2-yl)-5-methyl-1H-pyrazole-4-carboxamide mesylate], in data set [1], the IC50 was determined as 125 nM. Moreover, the inhibition at 1 µM against hERG worked out at 26.4%.

Consider `Cc1c(C(=O)Nc2ccc(C3(C#N)CCC4(CC3)OCCO4)nc2)cnn1-c1ccc(Br)cn1` [Example D29], for which the IC50 in data set [1] stood at 86.9 nM. In addition, the inhibition at 1 µM against hERG came to 27.7%.

Take `Cc1c(C(=O)Nc2ccc(C3(C#N)CCC4(CC3)OCCO4)nc2)cnn1-c1ccc(C(F)(F)F)cn1` [Example D41]: in data set [1], the IC50 came out at 32.8 nM. In addition, at hERG, at 1 µM the inhibition was 26.4%.

As for `Cc1c(C(=O)Nc2ccc([C@]3(O)CC[C@@H](N4CCOCC4)CC3)nc2)cnn1-c1ccc(C(F)(F)F)cc1` [Example D53], the half-inhibitory concentration (IC50) in data set [1] was found to be 169 nM. At hERG, testing at 1 µM gave an inhibition of 25.1%.

For `Cc1c(C(=O)Nc2ccc([C@H]3CC[C@H](N4CCOCC4)CC3)nc2)cnn1-c1ccc(C(F)F)cn1` [Example D63], the half-maximal inhibitory concentration (IC50) in data set [1] was determined as 207 nM. This compound also gave an inhibition at 1 µM against hERG of 40.4%.

Consider `Cc1c(C(=O)Nc2ccc([C@H]3CC[C@H](N4CCOCC4)CC3)nc2)cnn1-c1ccc(C2CC2)cn1` [Example D64], for which, in data set [1], the IC50 came to 160 nM. Besides, on hERG, the inhibition at 1 µM is 27.9%.

Turning to `Cc1c(C(=O)Nc2ccc([C@H]3CC[C@H](N4CCOCC4)CC3)nc2)cnn1-c1ncc(C2CC2)cc1F` [Example D65], in data set [1], the IC50 was 139 nM. The compound also showed an inhibition at 1 µM against hERG of 5.5%.

For `Cc1c(C(=O)Nc2ccc(C3=CCC(N4CCOCC4)CC3)nc2)cnn1-c1ccc(C(F)(F)F)cc1` (stereo not drawn) [Example D71], the half-inhibitory concentration (IC50) in data set [1] came out at 62.5 nM. Also, 1 µM produced 16.5% inhibition against hERG.

On to `Cc1c(C(=O)Nc2ccc([C@]3(C#N)CC[C@@H](N4CCOCC4)CC3)nc2)cnn1-c1ccc(C(C)(C)C)cc1` [Example D88], for which the half-inhibitory concentration (IC50) in data set [1] stood at 52.6 nM. For the same compound, the inhibition at 1 µM against hERG was 43%.

In the case of `Cc1c(C(=O)Nc2ccc([C@]3(C#N)CC[C@@H](N4CCOCC4)CC3)nc2)cnn1-c1ccc(F)cc1` [Example D89], the IC50 in data set [1] stood at 183 nM. Further, the inhibition at 1 µM on hERG stood at 44.4%.

On to `Cc1c(C(=O)Nc2ccc([C@]3(C#N)CC[C@@H](N4CCOCC4)CC3)nc2)cnn1-c1ccc(C(C)(C)C)cn1` [Example D104], for which the half-maximal inhibitory concentration (IC50) in data set [1] came to 212 nM. Besides, on hERG, the inhibition at 1 µM is 13.8%.

As for `Cc1ccc(-n2ccc(C(=O)Nc3ccc(C4(C#N)CCC5(CC4)OCCO5)nc3)c2)cc1C` [Example D153], the concentration for half-maximal inhibition (IC50) in data set [1] came out at 55.1 nM. On hERG, the inhibition at 1 µM amounted to 47.6%.

Regarding `COc1cc(NC(=O)c2cnn(-c3ccc(C(F)(F)F)cn3)c2C)cnc1C1=CCC(N(C)C(=O)C(C)(C)C)CC1` (stereo not drawn) [Example K69, N-(6-{4-[N-(2,2-Dimethylpropion-1-yl)-N-methylamino]cyclohex-1-en-1-yl}-5-methoxypyridin-3-yl)-5-methyl-1-[5-(trifluoromethyl)pyridin-2-yl]-1H-pyrazole-4-carboxamide], the inhibition at 1 µM at hERG came out at 1.3%.
